Data set [1] deals with human MDR1 (P-gp) (Homo sapiens, UniProt P08183). Put plainly: Permeability assay, LLC-PK1-MDR1 cells overexpressing P-gp.
Method: (§2) When the cell transport system was mature in culture, experiments were performed. […] When assessing permeability in basolateral to apical (B-A) direction, 100 μL of pre-warmed Buffer B and 600 μL of pre-warmed test solutions were added to the apical and basolateral compartments, respectively. The Transwells® were placed in an incubator at 37 °C and 5% CO2 for a duration of 2 h. At the end of the incubation period, the samples in the apical and basolateral sides were collected separately and were briefly kept at a temperature of −40 °C for LC-MS/MS analysis. […] The cells were transferred to Transwell® plates (Corning, NY, USA) at a density of 2 × 10^4 cells/well with 200 μL of cell suspension per well, while 850 μL of complete medium was added to the basolateral chamber. […] The samples were collected separately and were briefly kept at a temperature of −40 °C for LC-MS/MS analysis.
In data set [2] the target is T1, human OCTN1 (Homo sapiens, UniProt Q9H015).
T1 construct: Huidi Jiang, Zhejiang University; host or cells: MDCK (MDCK-OCTN1); control MDCK-MOCK
T1 sequence (Q9H015 1-551): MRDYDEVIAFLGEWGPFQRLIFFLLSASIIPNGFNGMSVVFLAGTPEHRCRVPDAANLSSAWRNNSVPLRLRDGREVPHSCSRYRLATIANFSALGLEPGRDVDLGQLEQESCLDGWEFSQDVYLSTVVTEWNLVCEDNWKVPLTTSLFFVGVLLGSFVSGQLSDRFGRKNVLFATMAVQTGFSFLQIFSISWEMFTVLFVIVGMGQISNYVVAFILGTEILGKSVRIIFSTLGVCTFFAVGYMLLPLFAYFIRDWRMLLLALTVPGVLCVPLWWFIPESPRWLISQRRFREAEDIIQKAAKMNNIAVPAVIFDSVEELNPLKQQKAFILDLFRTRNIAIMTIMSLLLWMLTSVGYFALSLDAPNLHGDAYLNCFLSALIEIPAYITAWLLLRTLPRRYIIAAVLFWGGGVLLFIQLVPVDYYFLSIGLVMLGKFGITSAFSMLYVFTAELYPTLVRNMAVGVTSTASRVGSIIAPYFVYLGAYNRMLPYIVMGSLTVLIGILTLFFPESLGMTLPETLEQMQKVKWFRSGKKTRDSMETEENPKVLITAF
Put plainly: Uptake study, MDCK cells overexpressing OCTN1. In kind it is in vitro ADME. Here is the method: (§1) All cells (HEK293-MOCK, HEK293-OCT1, HEK293-OCT2, MDCK-MOCK, MDCK-OCTN1, and MDCK-OCTN2) were cultured in DMEM medium supplemented with 10% FBS and PS (100 U/mL), at 37 °C in a humidified 5% CO2 incubator. Cells were seeded on 24-well plates at a density of 1 × 10^4 cells/well. For the uptake assay, the DMEM media were removed, and the cells were washed with pre-warmed Hank’s buffer three times (1 mL/well). Subsequent addition of inhibitor-free/inhibitor-containing buffer was pre-incubated for 30 min at 37 °C prior to the initiation of the uptake experiment. After the pre-incubating buffer was removed, 200 μL of pre-warmed test drugs solution (Hank’s buffer containing 10 µM and 50 µM peramivir) or a mixture of test drugs and inhibitor was added into each well, and the plates were incubated at 37 °C for 5 min. At the end of incubation, cells were washed and lysed as described above. The cell lysate was collected and stored at −40 °C for LC-MS/MS analysis and protein measurement. The negative control (MOCK cells) and positive control were included simultaneously.

The subject of data set [3] is LLC-PK1 cells. Kind of data set: Permeability assay, LLC-PK1-MOCK cells. As to conditions: LLC-PK1, 2 μM, Mean ± SD, n = 3. In kind it is in vitro ADME.
Method: as §2
Data set [4] addresses T2, human OCT2 (Homo sapiens, UniProt O15244).
T2 construct: host or cells: HEK293 (HEK293-OCT2); control HEK293-MOCK
T2 sequence (O15244 1-555): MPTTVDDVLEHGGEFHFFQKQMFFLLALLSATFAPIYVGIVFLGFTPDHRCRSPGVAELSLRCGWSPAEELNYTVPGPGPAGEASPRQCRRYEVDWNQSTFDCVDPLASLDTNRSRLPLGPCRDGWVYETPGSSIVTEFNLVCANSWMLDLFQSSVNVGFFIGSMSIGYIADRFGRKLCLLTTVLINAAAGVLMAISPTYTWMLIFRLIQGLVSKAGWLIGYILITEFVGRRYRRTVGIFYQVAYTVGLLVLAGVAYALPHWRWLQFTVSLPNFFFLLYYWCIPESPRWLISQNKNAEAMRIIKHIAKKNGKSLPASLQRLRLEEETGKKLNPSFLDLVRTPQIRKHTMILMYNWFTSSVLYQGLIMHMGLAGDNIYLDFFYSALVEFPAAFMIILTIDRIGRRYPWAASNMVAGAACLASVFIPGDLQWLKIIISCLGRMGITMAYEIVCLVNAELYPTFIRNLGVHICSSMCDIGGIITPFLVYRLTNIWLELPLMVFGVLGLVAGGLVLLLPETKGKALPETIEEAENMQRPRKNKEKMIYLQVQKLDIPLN
Kind of data set: Uptake study, HEK293 cells overexpressing OCT2. The class given is in vitro ADME. The protocol: as §1

Data set [5] has as its target T3, human OCT1 (Homo sapiens, UniProt O15245).
T3 construct: host or cells: HEK293 (HEK293-OCT1); control HEK293-MOCK
T3 sequence (O15245 1-554): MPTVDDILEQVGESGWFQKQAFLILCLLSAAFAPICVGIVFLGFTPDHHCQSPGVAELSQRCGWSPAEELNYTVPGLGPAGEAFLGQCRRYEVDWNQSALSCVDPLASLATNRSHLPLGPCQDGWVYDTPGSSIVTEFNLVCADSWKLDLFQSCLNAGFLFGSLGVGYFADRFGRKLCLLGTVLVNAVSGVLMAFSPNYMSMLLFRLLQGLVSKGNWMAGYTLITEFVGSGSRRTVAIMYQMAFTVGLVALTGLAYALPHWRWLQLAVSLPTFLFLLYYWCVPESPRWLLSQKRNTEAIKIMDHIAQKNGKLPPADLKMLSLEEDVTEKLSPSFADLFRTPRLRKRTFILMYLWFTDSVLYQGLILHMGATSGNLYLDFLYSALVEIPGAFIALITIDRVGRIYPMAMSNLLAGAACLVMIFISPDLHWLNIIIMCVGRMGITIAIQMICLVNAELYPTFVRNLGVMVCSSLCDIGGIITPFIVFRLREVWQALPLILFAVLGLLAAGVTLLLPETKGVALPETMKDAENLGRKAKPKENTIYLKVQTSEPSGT
Kind of data set: Uptake study, HEK293 cells overexpressing OCT1. In kind it is in vitro ADME. Here is the method: as §1

Setting [6] is: LLC-PK1-MDR1, 2 μM, Mean ± SD, n = 3.

The structures appear in SMILES notation.

Chain of human MDR1 (P-gp) (P08183 whole entry): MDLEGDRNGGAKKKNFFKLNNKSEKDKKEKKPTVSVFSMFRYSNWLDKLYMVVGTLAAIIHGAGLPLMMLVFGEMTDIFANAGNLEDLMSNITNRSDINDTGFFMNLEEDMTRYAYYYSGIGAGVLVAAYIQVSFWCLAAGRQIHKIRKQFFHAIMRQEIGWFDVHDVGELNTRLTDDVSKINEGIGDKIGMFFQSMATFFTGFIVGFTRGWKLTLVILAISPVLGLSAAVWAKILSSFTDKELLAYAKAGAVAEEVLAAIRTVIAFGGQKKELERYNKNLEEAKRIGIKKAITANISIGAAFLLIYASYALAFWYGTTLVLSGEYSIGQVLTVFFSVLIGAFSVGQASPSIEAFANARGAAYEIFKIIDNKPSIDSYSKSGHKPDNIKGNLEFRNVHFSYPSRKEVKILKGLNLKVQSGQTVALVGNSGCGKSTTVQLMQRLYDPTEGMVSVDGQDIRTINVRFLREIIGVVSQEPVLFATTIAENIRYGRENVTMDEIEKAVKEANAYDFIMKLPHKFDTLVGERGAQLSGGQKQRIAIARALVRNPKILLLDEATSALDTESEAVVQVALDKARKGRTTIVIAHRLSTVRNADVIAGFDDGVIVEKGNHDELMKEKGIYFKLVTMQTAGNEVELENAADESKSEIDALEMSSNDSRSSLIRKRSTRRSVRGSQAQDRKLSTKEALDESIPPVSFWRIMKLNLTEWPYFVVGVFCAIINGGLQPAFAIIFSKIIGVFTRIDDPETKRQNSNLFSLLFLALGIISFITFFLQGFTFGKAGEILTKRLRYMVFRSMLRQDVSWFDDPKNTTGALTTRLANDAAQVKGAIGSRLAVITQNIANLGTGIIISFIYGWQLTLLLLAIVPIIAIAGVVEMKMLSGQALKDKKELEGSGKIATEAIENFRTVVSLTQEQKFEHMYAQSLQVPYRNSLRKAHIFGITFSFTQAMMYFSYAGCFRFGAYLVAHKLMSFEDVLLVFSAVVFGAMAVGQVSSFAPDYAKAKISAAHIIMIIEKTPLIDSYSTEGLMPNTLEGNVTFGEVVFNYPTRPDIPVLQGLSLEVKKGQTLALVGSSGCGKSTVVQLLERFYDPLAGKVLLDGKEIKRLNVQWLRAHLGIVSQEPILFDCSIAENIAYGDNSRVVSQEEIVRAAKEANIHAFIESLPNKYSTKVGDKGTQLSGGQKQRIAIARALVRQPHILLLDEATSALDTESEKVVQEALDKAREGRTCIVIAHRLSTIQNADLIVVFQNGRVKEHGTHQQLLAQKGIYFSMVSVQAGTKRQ

With `CCC(CC)[C@H](NC(C)=O)[C@@H]1[C@H](O)[C@@H](C(=O)O)C[C@H]1N=C(N)N` [Peramivir], the “Papp A-B” value in data set [1] (setting [6]) and in data set [3] was “BLQ” in each case. Also, the “Papp B-A” value is recorded as 0.23 ± 0.03 ×10−6 cm/s in data set [1] (setting [6]) and 0.21 ± 0.04 ×10−6 cm/s in data set [3]. Moreover, the “P-gp transporter substrate status” value in data set [1] (Papp(B→A) LLC-PK1-MDR1 vs LLC-PK1-MOCK) is “not a substrate of the P-gp transporter”. For the same compound, in data set [2] (MDCK-OCTN1), the OCTN1 substrate status entry is “does not conclusively establish peramivir as a substrate for OCTN1”. In data set [2] (MDCK-OCTN1, 50 μM), the “transporter-mediated uptake ratio (UR value)” value turned out to be 3.19. For the same compound, the “inhibition ratio (IR value)” value in data set [2] (MDCK-OCTN1, 50 μM, inhibitor quinidine (500 μM)) was 40.22%. Moreover, in data set [4] (HEK293-OCT2), the OCT2 substrate status entry was “does not act as a substrate”. Besides, the “transporter-mediated uptake ratio (UR)” value in data set [4] (HEK293-OCT2, 50 μM) is given as < 1; in data set [5] (HEK293-OCT1, 50 μM), < 1. In addition, the “inhibition ratio (IR)” value is “exceeding 98.51%” in data set [4] (HEK293-OCT2, 50 μM, inhibitor verapamil (200 μM)) and “exceeding 98.51%” in data set [5] (HEK293-OCT1, 50 μM, inhibitor verapamil (200 μM)). Further, the OCT1 substrate status result in data set [5] (HEK293-OCT1) is reported as “does not act as a substrate”.

These data come from paper PMC11858854, “In Vitro and In Vivo Assessment of Pharmacokinetic Profile of Peramivir in the Context of Inhalation Therapy” (Pharmaceuticals, 2025).
